According to paper PMC5330258 (Journal of medicinal chemistry, 2016):
Like-named read-outs stand apart in the source and are kept apart here.

Columns and labels:
[1] = cited from earlier work
VDR = biological target: T1, VDR (Homo sapiens, UniProt P11473); experiment: Lentiviral VDRE-luciferase transcriptional reporter assay; type: cell-based; conditions: for VDR activation (in words): concentration up to 1000 nM, all three cell lines (HaCaT, Caco-2, Jurkat); for EC50: 24 h, NS: no significance
T1 sequence (P11473 1-427): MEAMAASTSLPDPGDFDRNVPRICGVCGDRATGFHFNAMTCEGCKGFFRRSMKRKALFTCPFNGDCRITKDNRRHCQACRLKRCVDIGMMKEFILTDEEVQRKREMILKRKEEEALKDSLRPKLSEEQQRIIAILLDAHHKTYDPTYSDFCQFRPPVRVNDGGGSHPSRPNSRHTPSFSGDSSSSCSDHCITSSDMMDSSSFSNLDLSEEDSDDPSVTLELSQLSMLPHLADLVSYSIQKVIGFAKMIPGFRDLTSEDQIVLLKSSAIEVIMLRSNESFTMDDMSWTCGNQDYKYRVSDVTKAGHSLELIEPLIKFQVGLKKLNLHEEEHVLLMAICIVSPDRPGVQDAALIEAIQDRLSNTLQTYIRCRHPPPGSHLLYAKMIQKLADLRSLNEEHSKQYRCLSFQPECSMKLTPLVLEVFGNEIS

SKMEL-188 melanoma cells = experiment: Antiproliferative activity on melanoma cells; type: cell-based; conditions: compared with parent compounds and 1,25(OH)2D3

C=C1/C(=C\C=C2/CCC[C@]3(C)[C@@H]([C@H](C)CCCC(C)(C)O)CC[C@@H]23)C[C@@H](O)C[C@@H]1O [1,25(OH)2D3, 1α,25-dihydroxyvitamin D3]
Calcemic effect ([1]; rats and mice): causes hypercalcemia

C=C1CC[C@H](O)C/C1=C/C=C1\CCC[C@@]2(C)[C@H]1CC[C@@H]2[C@@](C)(O)C[C@H](O)CC(C)C [17a, 20S,23R(OH)2D3]
VDR activation (in words) (VDR): strong stimulatory effect

C=C1CC[C@H](O)C/C1=C/C=C1\CCC[C@@]2(C)[C@H]1CC[C@@H]2[C@@](C)(O)C[C@@H](O)CC(C)C [17b, 20S,23S-dihydroxyvitamin D3]
VDR activation (in words) (VDR): unable to activate VDR
EC50 (VDR; read-out: VDRE activation (EC50, nM) Caco-2, Caco-2 cells): > 1000 nM
EC50 (VDR; read-out: VDRE activation (EC50, nM) HaCaT, HaCaT cells): > 1000 nM
EC50 (VDR; read-out: VDRE activation (EC50, nM) Jurkat, Jurkat cells): > 1000 nM

C=C1/C(=C\C=C2/CCC[C@@]3(C)[C@H]2CC[C@@H]3[C@@](C)(O)C[C@H](O)CC(C)C)C[C@@H](O)C[C@@H]1O [18a, 1α,20S,23R(OH)3D3]
Maximal inhibition values (in words) (SKMEL-188 melanoma cells): higher maximal inhibition values
EC50 in Jurkat cells relative to that of 18b (VDR; Jurkat cells): six times lower

C=C1/C(=C\C=C2/CCC[C@@]3(C)[C@H]2CC[C@@H]3[C@@](C)(O)C[C@@H](O)CC(C)C)C[C@@H](O)C[C@@H]1O [18b, 1α,20S,23S(OH)3D3]
Maximal inhibition values (in words) (SKMEL-188 melanoma cells): higher maximal inhibition values

C=C1CC[C@H](O)C/C1=C/C=C1\CCC[C@@]2(C)[C@H]1CC[C@@H]2[C@@](C)(O)CCCC(C)C [20S(OH)D3, 20S-hydroxyvitamin D3]
Calcemic effect ([1]; doses up to 30 μg/kg in mice): noncalcemic
